Values quoted from earlier work, collected in patent EP0467998B1, “PEPTIDES FROM RETINOBLASTOMA GENE PRODUCTS AND ANTIBODIES THERETO” (BAYLOR COLLEGE OF MEDICINE, priority 1989, dated 1990).

Details: individual amino acid, Hopp and Woods (1981)

Row | SMILES | Hydrophilicity Value
1 | N[C@@H](CO)C(=O)O [Ser] | 0.3
2 | N[C@@H](CCC(=O)O)C(=O)O [Glu] | 3.0
3 | N[C@@H](Cc1c[nH]c2ccccc12)C(=O)O [Trp] | -3.4
4 | N[C@@H](CC(=O)O)C(=O)O [Asp] | 3.0
5 | NC(=O)C[C@H](N)C(=O)O [Asn] | 0.2
6 | N[C@@H](CS)C(=O)O [Cys] | -1.0
7 | CC(C)[C@H](N)C(=O)O [Val] | -1.5
8 | NCC(=O)O [Gly] | 0.0
9 | NCCCC[C@H](N)C(=O)O [Lys] | 3.0
10 | C[C@@H](O)[C@H](N)C(=O)O [Thr] | -0.4
11 | N=C(N)NCCC[C@H](N)C(=O)O [Arg] | 3.0
12 | CC[C@H](C)[C@H](N)C(=O)O [Ile] | -1.8
13 | CSCC[C@H](N)C(=O)O [Met] | -1.3
14 | O=C(O)[C@@H]1CCCN1 [Pro] | 0.0
15 | N[C@@H](Cc1ccccc1)C(=O)O [Phe] | -2.5
16 | C[C@H](N)C(=O)O [Ala] | -0.5
17 | N[C@@H](Cc1ccc(O)cc1)C(=O)O [Tyr] | -2.3
18 | N[C@@H](Cc1c[nH]cn1)C(=O)O [His] | -0.5
